{"source": "patent US20110152372A1", "about": "“ANHYDROUS PETROLEUM JELLY/ELASTOMER-FREE DEPIGMENTING COMPOSITIONS COMPRISING A SOLUBILIZED PHENOLIC COMPOUND AND A RETINOID” (Galderma Research & Development, priority 2008, published 2011)", "origin": "cited, not measured here", "note": "Like-named read-outs stand apart in the source and are kept apart here.", "data": [{"smiles": "Oc1ccc(O)cc1", "note": "[hydroquinone]", "values": [{"measurement": "Incidence of irritation", "setting": "10% concentrations", "value": "relatively high"}, {"measurement": "Incidence of irritation", "setting": "concentration of 2%", "value": "virtually nonexistent"}, {"measurement": "Incidence of irritation", "setting": "preparations with a 5% dose", "value": "reduces greatly"}]}]}
